# Experimental data published in patent US20170096492A1, “DOSAGE AND ADMINISTRATION OF ANTI-IGF-1R, ANTI-ErbB3 BISPECIFIC ANTIBODIES, USES THEREOF AND METHODS OF TREATMENT [sequence]” (Merrimack Pharmaceuticals, Inc., priority 2014, published 2017).
# Entries after “also recorded” stand apart in the source; their conditions may differ.
# Key:
# [1] = test system: BxPC-3 derived xenograft tumors; experiment: BxPC-3 xenograft PD, western blot; format: in vivo, mice; conditions: MM-141 30 mpk i.p. Day 0, 3, 6 co-administered with gemcitabine 150 mpk
# Source text: For the PD studies described in FIGS. 6A-B and FIGS. 9 A-B, nu/nu female mice were inoculated with 8×10^6 DU145 or 5×10^6 BxPC-3 cells, respectively, in 1:1 Matrigel® suspension. […] Tumor lysates were generated and subjected to western blot analysis.
# [2] = test system: BxPC-3 cell line xenografts; experiment: BxPC-3 xenograft efficacy study; format: in vivo, mice
# Description: For the efficacy studies (FIGS. 6C and 9C), nu/nu female mice were inoculated with 8×10^6 DU145 cells and 5×10^6 BxPC-3 cells, respectively. […] Tumor volume was measured weekly as described in Example 4.
# [3] = test system: HepG2 hepatocellular carcinoma cells; experiment: HepG2 western blot, sorafenib with or without MM-141; format: cell-based; conditions: MM-141 500 nM added to sorafenib 5 μM, 2 hours
# Description: HepG2 cells were plated on 12 well dishes (3×10^5 cells per well) in 10% serum-containing media and incubated overnight. […] Following treatment, cells were harvested in lysis buffer containing protease and phosphatase inhibitors and analyzed by western blotting.
# [4] = test system: BxPC-3 (KRas wild-type) pancreatic cancer cells; experiment: pAKT western blot, GSK-1120212 and MM-141; format: cell-based, human; conditions: 24 h
# Description: Following treatment, cells were harvested in cell lysis buffer and western blotting was performed and quantified for pAKT (Serine 473).
# BxPC-3 cells = experiment: Cellular proliferation assay in low serum with or without IGF-1 or HRG; format: cell-based, human; conditions: for inhibition of cell growth: low (2%) serum
# [5] = test system: platinum-sensitive (Peol, PEA1 and OvCAR5) and platinum-resistant (Peo4 and PEA2) ovarian cancer cells; experiment: CTG cell viability, paclitaxel with IGF-1 or HRG, three-dimensional ovarian cultures; format: cell-based; conditions: paclitaxel 10-100 nM, IGF-1 or HRG 0-50 nM, MM-141 1 μM, 2% serum
# Description: The cell viability assay (FIGS. 17A-B) was carried out using a CellTiter-Glo® (CTG) assay (Promega), which determines the number of viable cells in a culture based on quantitation of the ATP present. In FIGS. 17A-B, Peol, Peo4, PEA1, PEA2 and OvCAR5 cells were grown in 2% serum alone or with exogenous IGF-1 or HRG added (0-50 nM).
# ovarian cancer cells = experiment: Ovarian cancer cell western blot, AKT and ERK signaling; format: cell-based; conditions: MM-141 1 μM 1 hour, then IGF-1 50 nM or HRG 10 nM 10 minutes
# Description: In FIGS. 18A-F, Peol, Peo4, Ov90, PEA1, PEA2 and OvCAR8 ovarian cancer cells were plated on 10 cm plates (1-3×10^6 cells per plate) in 10% serum-containing medium and incubated overnight. […] Following treatment, cells were harvested in lysis buffer containing protease and phosphatase inhibitors and analyzed by western blotting. Phosphorylated and total levels of IGF-1R, ErbB3, AKT and ERK were determined using target-specific antibodies.
# [6] = test system: panel of pancreatic cancer cell lines; experiment: pAKT ELISA after HRG and IGF-1 stimulation; format: cell-based, human; conditions: MM-141 500 nM 24 hours, HRG and IGF-1 100 ng/mL 15 minutes, ten cell lines
# Description: Ten pancreatic cancer cell lines (see Table 3 above) were seeded at 65% confluence in 10% serum-containing medium and incubated in 96-well plates overnight. […] Following incubation, cells were treated with a combination of HRG and IGF-1 ligands at 100 ng/mL or PBS (control) for 15 minutes. After treatment, cells were harvested and protein lysates generated. Changes in pAKT levels across all treatments and cell lines were evaluated by pAKT ELISA. Phosphorylated AKT signal from untreated control was subtracted from each treatment, and then pAKT levels post-treatment with HRG and IGF-1 were normalized to 1 for each cell line.
# [7] = test system: CFPAC-1 pancreatic cancer cells; experiment: Total ErbB3 and total IGF-1R ELISA (Example 20); format: cell-based, human; conditions: 50 nM, relative to vehicle control
# Description: CFPAC-1 pancreatic cancer cells were seeded at 65% confluence in 10% serum-containing medium and incubated in 96-well plates overnight. […] After treatment, cells were harvested and protein lysates generated. Changes in ErbB3 and IGF-1R levels across all treatments were evaluated by total ErbB3 or total IGF-1R ELISA, respectively.
# [8] = test system: IGF-1R and ErbB3 receptors; experiment: Receptor expression ELISA versus monospecific antibodies (Example 31); format: cell-based; conditions: 50 nM, four hours post-treatment, compared with monospecific antibodies
# Description: Cell lysates were harvested four hours post-treatment with antibodies as indicated in FIGS. 33A and 33B (50 nM of each antibody) and changes in receptor expression were measured by ELISA. All ELISA measurements are normalized to vehicle (PBS) treatment, and these measurements are expressed relative to a vehicle treated control value of 1.
# [9] = test system: CFPAC-1 pancreatic cancer cells; experiment: CellTiter-Glo viability in three-dimensional nano-culture plates; format: cell-based, human
# Description: CFPAC-1 pancreatic cancer cells were seeded in 10% serum-containing medium and incubated in 96-well three-dimensional nano-culture plates overnight. […] Cell viability was measured 96 hours post-treatment using CellTiter-Glo® (Promega).
substance,measurement,setting,value
"MM-141: polyvalent bispecific antibody P4-G1-M1.3, anti-IGF-1R and anti-ErbB3; heavy chain SEQ ID NO: 3, light chain SEQ ID NO: 4","gemcitabine-induced receptor (IGF-1R, ErbB3) up-regulation",[1],reversed the receptor up-regulation
same,tumor growth after development of resistance to gemcitabine,[2]; MM-141 30 mpk i.p. q3d added to the gemcitabine regimen on day 41,decreased tumor growth
same,activity of gemcitabine in the combination arm,[2]; MM-141 30 mpk i.p. q3d co-administered with gemcitabine 150 mpk i.p. q6d,increased the activity of gemcitabine
same,therapeutic synergy with gemcitabine,[2]; MM-141 30 mpk i.p. q3d with gemcitabine 150 mpk i.p. q6d,therapeutic synergy
same,sorafenib-induced up-regulation of ErbB3 and pAKT,[3],overcome
same,pAKT upregulation induced by the MEK inhibitor,[4]; MM-141 1000 nM with GSK-1120212 250 nM,decreases the pAKT upregulation
same,pAKT (Serine 473) level,"[4]; single agent, GSK-1120212 250 nM or MM-141 1000 nM",down-regulates the basal level of pAKT
same,"inhibition of cell growth, greater than in the absence of ligand",BxPC-3 cells; in presence of HRG,approximately 50%
same,inhibition of cell growth,BxPC-3 cells; IGF-1 added to the media,maximal activity
same,inhibition of cell growth,BxPC-3 cells; absence of exogenous ligand,unable to inhibit cell growth
same,resistance to cytotoxic effect of paclitaxel caused by IGF-1 or heregulin,[5],resistance was reversed
same,IGF-1 and/or HRG induced upregulation in AKT and ERK survival signaling,ovarian cancer cells,could be abrogated
same,pAKT (AKT activation) induced by the combination of HRG and IGF-1,[6],blocks AKT activation; also recorded: greatly reduced amount of pAKT
same,total ErbB3 protein level,[7],potently down-regulates
same,total IGF-1R protein level,[7],potently down-regulates
same,decrease of ErbB3 expression level,[8],to a greater extent
same,decrease of IGF-1R expression level,[8],to a greater extent
same,proliferation compared to cells incubated with ligands alone,"[9]; MM-141 1000 nM in addition to HRG 10 nM and IGF-1 50 nM, with gemcitabine or paclitaxel",reduced proliferation
same,sensitivity to gemcitabine in cells stimulated with HRG and IGF-1,"[9]; gemcitabine 2 nM, HRG 10 nM, IGF-1 50 nM, MM-141 1000 nM, 96 hours",restores sensitivity
same,sensitivity to paclitaxel in cells stimulated with HRG and IGF-1,"[9]; paclitaxel 6 nM, HRG 10 nM, IGF-1 50 nM, MM-141 1000 nM, 96 hours",restores sensitivity
